Experiment [1] concerns choline acetyltransferase (ChAT). Nature of the experiment: ChAT activity in hippocampus and frontal cortex homogenates of ovariectomized (OVX) rats, radio-labelled assay of acetylcholine bio-synthesis. It is filed as in vivo, female Sprague-Dawley rats. The following applies: dosed daily s.c. or oral gavage for 10 days; for levels of ChAT, difference from the sham controls: same doses as E1; for levels of ChAT versus the OVX controls: tamoxifen 3 or 10 mg/kg/day, raloxifene hydrochloride 3 mg/kg/day, estradiol benzoate 0.03 or 0.3 mg/kg/day. As to the method:
Forty female Sprague-Dawley rats (weight range of 300 to 325 g, six months old) are obtained from Harlan. The animals are either bilaterally ovariectomized (OVX) or exposed to a Sham surgical procedure, and then shipped after about one week. Upon arrival, they are housed in metal hanging cages in groups of 3 or 4 per cage and have ad libitum access to food and water for one week. Room temperature is maintained at 22.20±1.7° C. with a minimum relative humidity of 40%. The photoperiod in the room is 12 hours light and 12 hours dark.
The animals are dosed daily by subcutaneous injection or oral gavage with either tamoxifen, at 3 mg/kg/day or 10 mg/kg/day in a vehicle containing 10% cyclodextrin, raloxifene hydrochloride, at 3 mg/kg/day in a vehicle containing 10% cyclodextrin, estradiol benzoate at 0.03 or 0.3 mg/kg/day, or vehicle control. Animals were treated for 10 days. There are twenty animals per each dosing regimen. At the appropriate time intervals, the animals are sacrificed and their brains dissected. The particular portions of the brains are homogenized and assayed. Homogenates from the hippocampus and frontal cortex were processed and determination of ChAT activity was made by a radio-labelled assay of the bio-synthesis of acetylcholine. This procedure may be found in Schoepp et al., J. Neural Transmiss., 78:183-193, 1989, the teachings of which are incorporated by reference.

Another experiment deals with ChAT. Particulars: rats; literature (Luine et al. 1980, Luine 1985, Singh et al. 1994); cited from earlier work.
Experiment [2] can be described thus: Amelioration of Alzheimer's disease in post-menopausal women after chronic administration. It is filed as in vivo, human. The following applies: post-menopausal women with Alzheimer's disease; 20 mg per day, oral, 2-12 months. The source says: Thus, the current invention provides methods for the treatment and prophylaxis of syndromes related to the loss of memory, learning, and cognitive function, often seen in women who are estrogen deprived, especially post-menopausal women. An example of such a syndrome is senile dementia of the Alzheimer's type. Beneficial effects, such as a decrease in memory loss, associated with administration of a compound of this invention become apparent after chronic administration.

A short description of experiment [3]: Prophylactic use: cognitive and memory function by standard tests in peri- or post-menopausal women. Particulars: 20 mg/day, oral, 1-5 years. The experiment is classed as in vivo, human. The method, then:
The methods of the present invention may also be employed in a prophylactic modality. […] Following the establishment of this baseline, the women are administered tamoxifen at 20 mg/day, via the oral route, for a period 1-5 years.

Structures can show the parent of a compound that is named as a salt.

As to `O=C(c1ccc(OCCN2CCCCC2)cc1)c1c(-c2ccc(O)cc2)sc2cc(O)ccc12` [raloxifene hydrochloride], in experiment [1], the “levels of ChAT, difference from the sham controls” value (from here on “levels of ChAT, difference”) is given as “insignificant difference” and the “levels of ChAT versus the OVX controls” value is recorded as “significantly (p<0.01) increased levels of ChAT”.

On to estrogen, for which the “level of acetylcholine / ChAT in the hippocampus” value with ChAT is listed as “increases the level of acetylcholine by up-regulating ChAT”.

As to `CC/C(=C(\c1ccccc1)c1ccc(OCCN(C)C)cc1)c1ccccc1` [tamoxifen], in experiment [1], the “levels of ChAT, difference” value is listed as “insignificant difference” and the “levels of ChAT versus the OVX controls” value is recorded as “significantly (p<0.05) increased levels of ChAT”. Further, the “effect on Alzheimer's disease” value in experiment [2] is reported as “amelioration of their disease”. Also, in experiment [3], the “cognitive and memory functions relative to matched patients given placebo” value is “decrease in loss of these functions”.

Regarding `C[C@]12CC[C@@H]3c4ccc(OC(=O)c5ccccc5)cc4CC[C@H]3[C@@H]1CC[C@@H]2O` [estradiol benzoate], in experiment [1], the “levels of ChAT, difference” value is given as “insignificant difference” and the “levels of ChAT versus the OVX controls” value is on record as “significantly (p<0.01) increased levels of ChAT”.
